Measured values as given in paper PMC11089204 (Frontiers in Pharmacology, 2024).

Legend:
human 5-HT2A receptor [1] = biological target: T1, human 5-HT2A receptor (Homo sapiens, UniProt P28223); experiment: Radioligand receptor binding, 5-HT2A; set-up: expressed in transfected cells; host or cells: HEK 293 membrane preparations; conditions: HEK 293 membranes, [3H]ketanserin; read-out: h5-HT2A Receptor binding Ki ± SD
human 5-HT2B receptor = biological target: T2, human 5-HT2B receptor (Homo sapiens, UniProt P41595); experiment: 5-HT activation potency (IP1 accumulation), 5-HT2B; format: cell-based; conditions: NIH/3T3 cells, read-out: h5-HT2B Activation potency EC50 ± SD
T2 construct: expressed in transfected cells; host or cells: NIH/3T3
Procedure: (§1) NIH/3T3 cells stably expressing the human 5-HT1A, 5-HT2A, and 5-HT2B receptors were seeded at a density of 3,000 cells (5-HT1A and 5-HT2A) or 4,000 cells (5-HT2B) in 384-well plates using Opti-MEM medium from Gibco (ThermoFisher, Life Technologies, Zug, Switzerland). Subsequently, the test compounds were introduced, and the plates were incubated for 90 min at 37°C, followed by a 60 min incubation with Anti-IP1-Cryptate and IP1-d2 at room temperature. The formation of stimulated IP1 was quantified by homogeneous time-resolved fluorescence (HTRF) measurements using a BioTek Synergy H1 microplate reader (Agilent Technologies, Basel, Switzerland). The obtained raw data for receptor activation were subjected to normalization, wherein the baseline signal was set at 0%, and the maximum signal stimulated by 5-HT at the specific receptor was established as 100%.

human 5-HT2A receptor [2] = biological target: T1, human 5-HT2A receptor; experiment: 5-HT activation potency (IP1 accumulation), 5-HT2A; format: cell-based; set-up: expressed in transfected cells; conditions: NIH/3T3 cells, read-out: h5-HT2A Activation potency EC50 ± SD
Procedure: as §1

CYP2D6 = experiment: Influence of CYP2D6 genotype on psilocin plasma exposure in humans; format: in vivo; conditions: human, PM/IM/EM/UM genotypes, AUC z-scores
Procedure: Genomic DNA was extracted from whole blood using the QIAamp DNA Blood Mini Kit (Qiagen, Hombrechtikon, Switzerland) and an automated QIAcube system. SNP genotyping was performed using commercial TaqMan SNP genotyping assays (LuBio Science, Lucerne, Switzerland). We assayed the following SNPs and respective alleles: CYP2D6*3 (rs35742686, assay: C_32407232_50), CYP2D6*4 (rs3892097, assay: C_27102431_D0, and rs1065852, assay: C_11484460_40), CYP2D6*6 (rs5030655, assay: C_32407243_20), CYP2D6*9 (rs5030656, assay: C_32407229_60), CYP2D6*10 (rs1065852), CYP2D6*17 (rs28371706, assay: C_2222771_A0, and rs16947, assay: C_27102425_10), CYP2D6*29 (rs59421388, assay: C_3486113_20), and CYP2D6*41 (rs28371725, assay: C_34816116_20, and rs16947). CYP2D6 gene deletion (allele *5) and duplication/multiplication (allele *xN) were determined using a TaqMan Copy Number Assay (Hs04502391_cn). Activity scores for CYP2D6 were assigned according to established guidelines ([Gaedigk et al., 2008]; [Crews et al., 2012]; [Hicks et al., 2013]; [Hicks et al., 2015]; [Caudle et al., 2020]). The classification into different genotypes was as follows: poor metabolizer (PM, activity score = 0), intermediate metabolizer (IM, activity score = 0.5–1), extensive metabolizer (EM, activity score = 1.5–2), and ultra-rapid metabolizer (UM, activity score > 2).

[3] = test system: serotonin transporter (SERT); set-up: method as in Rickli et al., 2016; conditions: ref Rickli et al., 2016; cited from earlier work
recombinant CYP2C19 = biological target: T3, recombinant CYP2C19 (Homo sapiens, UniProt P33261); experiment: Incubation with recombinant CYP2C19 enzymes; format: in vitro ADME; conditions: 1,000 nM psilocin, rec. CYP2C19
T3 construct: purchased Corning Life Sciences B.V
Procedure: (§2) Corning UltraPool human liver microsomes (HLM) 150 (20 mg/mL), human intestinal microsomes (HIM) pool (10 mg/mL) as well as recombinant human CYP enzymes (with P450 oxidoreductase, OR) including CYP1A2+OR (0.5 nmol), CYP2B6+OR (0.5 nmol), CYP2C8+OR (1.0 nmol), CYP2C9*1+OR (1 nmol), CYP2C19+OR (0.5 nmol), CYP2D6*1+OR (0.5 nmol), CYP2E1+OR + cytochrome b5 (1 nmol), CYP3A4+OR + cytochrome b5 (0.5 nmol), MAO-A (5 mg/mL), MAO-B (5 mg/mL), and UGT1A10 (5 mg/mL) were purchased from Corning Life Sciences B.V (Amsterdam, Netherlands). All microsomes and recombinant enzyme solutions were aliquoted and stored at −80 °C until further use.
The total volume of the reaction mixture was 500 μL. […] Samples were either directly analyzed by liquid chromatography tandem mass spectrometry (LC-MS/MS) or briefly stored at −20°C until analysis.

[4] = test system: dopamine (DAT) transporter; set-up: method as in Rickli et al., 2016; conditions: ref Rickli et al., 2016; cited from earlier work
[5] = test system: norepinephrine transporters (NET); set-up: method as in Rickli et al., 2016; conditions: ref Rickli et al., 2016; cited from earlier work
[6] = biological target: T4, recombinant human UGT1A10 (Homo sapiens, UniProt Q9HAW8); experiment: Glucuronidation with recombinant UGT1A10; format: in vitro ADME; conditions: for psilocin concentration (mean ± SD): 1,000 nM psilocin
T4 construct: purchased Corning Life Sciences B.V
T4 sequence (Q9HAW8 26-530): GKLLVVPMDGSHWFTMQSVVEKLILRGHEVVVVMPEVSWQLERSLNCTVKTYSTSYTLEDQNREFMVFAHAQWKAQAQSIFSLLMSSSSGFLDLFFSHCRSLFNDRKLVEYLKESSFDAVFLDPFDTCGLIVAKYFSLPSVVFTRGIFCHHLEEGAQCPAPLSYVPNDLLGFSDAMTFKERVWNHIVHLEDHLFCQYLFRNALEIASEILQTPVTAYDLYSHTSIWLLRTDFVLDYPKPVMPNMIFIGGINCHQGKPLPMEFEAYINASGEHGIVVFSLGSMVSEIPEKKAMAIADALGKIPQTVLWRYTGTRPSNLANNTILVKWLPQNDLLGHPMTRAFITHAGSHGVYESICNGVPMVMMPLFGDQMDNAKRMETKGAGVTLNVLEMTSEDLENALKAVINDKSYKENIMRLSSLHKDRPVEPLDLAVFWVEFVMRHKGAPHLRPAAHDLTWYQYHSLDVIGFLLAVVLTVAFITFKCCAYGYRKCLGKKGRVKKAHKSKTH
Procedure: as §2
The assay described in section 2.5.1 was adjusted to suit the glucuronidation system.

T1 sequence (P28223 whole entry): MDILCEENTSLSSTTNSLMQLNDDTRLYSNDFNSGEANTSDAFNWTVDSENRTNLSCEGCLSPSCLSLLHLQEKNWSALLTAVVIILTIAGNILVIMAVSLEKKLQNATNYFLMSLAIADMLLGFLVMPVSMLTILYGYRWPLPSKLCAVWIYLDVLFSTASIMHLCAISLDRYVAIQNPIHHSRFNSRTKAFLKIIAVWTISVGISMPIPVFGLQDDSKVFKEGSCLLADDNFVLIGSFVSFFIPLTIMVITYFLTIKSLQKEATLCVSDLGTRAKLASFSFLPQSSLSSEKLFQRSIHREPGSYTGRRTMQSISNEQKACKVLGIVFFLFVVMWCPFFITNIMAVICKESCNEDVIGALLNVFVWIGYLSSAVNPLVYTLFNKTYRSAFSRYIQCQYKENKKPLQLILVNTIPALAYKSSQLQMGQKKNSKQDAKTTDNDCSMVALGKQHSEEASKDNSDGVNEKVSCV
T2 sequence (P41595 whole entry): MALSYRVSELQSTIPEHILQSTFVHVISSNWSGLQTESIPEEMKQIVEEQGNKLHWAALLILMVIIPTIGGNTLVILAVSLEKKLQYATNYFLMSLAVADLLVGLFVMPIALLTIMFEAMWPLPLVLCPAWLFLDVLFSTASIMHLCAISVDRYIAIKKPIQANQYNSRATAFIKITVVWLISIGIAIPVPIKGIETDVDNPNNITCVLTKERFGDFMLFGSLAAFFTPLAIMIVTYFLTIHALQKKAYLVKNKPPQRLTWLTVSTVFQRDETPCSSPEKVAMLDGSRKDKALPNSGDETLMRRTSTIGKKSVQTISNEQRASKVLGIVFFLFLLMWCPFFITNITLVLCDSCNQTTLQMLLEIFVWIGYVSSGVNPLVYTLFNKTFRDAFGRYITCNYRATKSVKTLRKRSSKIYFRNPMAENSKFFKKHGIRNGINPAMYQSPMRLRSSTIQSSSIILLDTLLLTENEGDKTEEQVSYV
T3 sequence (P33261 whole entry): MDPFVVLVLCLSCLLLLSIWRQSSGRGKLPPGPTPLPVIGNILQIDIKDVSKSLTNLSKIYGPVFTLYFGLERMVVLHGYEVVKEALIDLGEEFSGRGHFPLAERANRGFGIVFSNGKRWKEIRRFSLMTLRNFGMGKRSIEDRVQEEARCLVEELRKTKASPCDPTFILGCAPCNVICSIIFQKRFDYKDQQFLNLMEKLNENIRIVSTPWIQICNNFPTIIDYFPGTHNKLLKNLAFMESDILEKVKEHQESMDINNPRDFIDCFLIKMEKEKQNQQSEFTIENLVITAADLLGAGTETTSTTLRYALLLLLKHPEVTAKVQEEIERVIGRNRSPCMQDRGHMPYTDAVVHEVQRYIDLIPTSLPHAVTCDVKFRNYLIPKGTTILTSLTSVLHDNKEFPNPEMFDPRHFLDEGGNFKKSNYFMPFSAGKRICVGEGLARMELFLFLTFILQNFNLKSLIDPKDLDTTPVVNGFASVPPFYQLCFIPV

Work on `O=C(O)Cc1c[nH]c2cccc(O)c12` [4-HIAA, 4-hydroxyindole-3-acetic acid] yielded a Ki (human 5-HT2A receptor [1]) greater than 10 µM, an EC50 (human 5-HT2B receptor) greater than 10 µM and an EC50 (human 5-HT2A receptor [2]) greater than 10 µM.
`OCCc1c[nH]c2cccc(O)c12` [4-HTP, 4-hydroxytryptophol] gave a Ki (human 5-HT2A receptor [1]) greater than 10 µM, an EC50 (human 5-HT2B receptor) greater than 10 µM and an EC50 (human 5-HT2A receptor [2]) greater than 10 µM.
For `CN(C)CCc1c[nH]c2cccc(O)c12` [psilocin, 4-hydroxy-N,N-dimethyltryptamine], the “effect of CYP2D6 genotype on plasma concentration of free psilocin” value (CYP2D6) is given as “did not alter”, the “inhibition of SERT” value [3] is given as “moderately inhibits” and the metabolism of psilocin (recombinant CYP2C19) is given as “did not metabolize”. The “inhibition of DAT” value [4] was “not”, the “inhibition of NET” value [5] was “not” and the “psilocin concentration (mean ± SD)” value ([6]; rec. UGT1A10, t = 0 min) was 1,029 ± 60 nM. For the same molecule, the “psilocin concentration (mean ± SD)” value ([6]; rec. UGT1A10, t = 240 min) was 979 ± 95 nM, the psilocin concentration ([6]; absence of UGT1A10, t = 0) was 980 ± 77 nM and the psilocin concentration ([6]; absence of UGT1A10, t = 240) was 893 ± 91 nM.
